Results as given in US20050042219A1, “Engineered Fab' fragment anti-tumor necrosis factor alpha in combination with disease modifying anti-rheumatic drugs” (priority 2002, published 2005).
Marks after values point to notes of the source that are not given here. Blank lines part the entries; values can stand above or below the compound they belong to.

Tests used:
[1] = PHA-001 study: PK interaction study with methotrexate in RA patients; conditions: single dose of CDP-870 400 mg SC; oral MTX 5-17.5 mg/week
[2] = target: T1, TNFβ (lymphotoxin) (Homo sapiens, UniProt P01374); experiment: Neutralization of TNFβ (lymphotoxin)
T1 sequence (P01374 35-205): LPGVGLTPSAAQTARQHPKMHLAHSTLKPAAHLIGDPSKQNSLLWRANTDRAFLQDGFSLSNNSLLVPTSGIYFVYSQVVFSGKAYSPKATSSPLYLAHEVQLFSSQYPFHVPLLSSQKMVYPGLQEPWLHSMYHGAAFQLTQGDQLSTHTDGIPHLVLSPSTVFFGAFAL

[3] = Half-life of the PEGylated Fab′ fragment; assay type: in vivo; conditions: PEG chains linked by a single maleimide group
[4] = test system: patients with active RA; experiment: Celltech-002 study: single IV infusion, ACR responder rates; assay type: in vivo, human; conditions: for ACR20 responder rate / ACR50 responder rate: week 8
Method: DMARD therapy was discontinued one month prior to study start; concomitant nonsteroidal anti-inflammatory drug (NSAID) and corticosteroid use was allowed provided the doses had been stabilized prior to entry into the study. […] Patients were assessed over an 8-week period.
Patients were assessed for an additional 8-week period.
(§1) The overall effect of CDP870 in reducing the signs and symptoms of RA was summarized using the following global index: • American College of Rheumatology (ACR) Core Set of Disease Activity Measures for Rheumatoid Arthritis Clinical Trials. A patient was considered an ACR 20/50/70 responder if 20/50/70% or greater improvement in number of swollen joints and tender joints and a 20/50/70% or greater improvement in three of the five remaining ACR core set measures (Patient's Assessment of Pain by VAS, Patient's Global Assessment of Disease Activity, Physician's Global Assessment of Disease Activity, Patient's Assessment of Physical Function by mHAQ, acute phase reactant value) was observed; and […]

[5] = test system: patients with active RA; experiment: Celltech-004 study: SC every 4 weeks, ACR responder rates; assay type: in vivo, human; conditions: for ACR-20 responder rate / ACR-50 responder rate / ACR-70 responder rate: week 12
Method: Again, DMARD therapy was discontinued one month prior to study start; concomitant NSAID and corticosteroid use was allowed provided the doses had been stabilized prior to entry into the study.
The protocol was subsequently amended based on the results of the double-blind portion of Panel 1, to increase the dose to 400 mg SC every 4 weeks for an additional 108 weeks.
as §1

[6] = human, in vivo

mean dose-adjusted MTX plasma concentrations, MTX alone versus coadministration with CDP-870 [1]: not significantly different
Compound: CN(Cc1cnc2nc(N)nc(N)c2n1)c1ccc(C(=O)N[C@@H](CCC(=O)O)C(=O)O)cc1 [MTX, methotrexate]

Compound: CDP-870: PEGylated anti-TNFα Fab′ fragment derived from antibody hTNF40, linked via a cysteine to a lysyl-maleimide linker bearing two methoxy PEG residues
neutralization of TNFβ (lymphotoxin) [2]: does not neutralize
half-life [3]: about 11 days
ACR20 responder rate ([4]; 1 mg/kg single IV): 25 % of Patients
ACR50 responder rate ([4]; 1 mg/kg single IV): 13 % of Patients
ACR20 responder rate ([4]; 5 mg/kg single IV): 75 % of Patients
ACR50 responder rate ([4]; 5 mg/kg single IV): 13 % of Patients
ACR20 responder rate ([4]; 20 mg/kg single IV): 75 % of Patients
ACR50 responder rate ([4]; 20 mg/kg single IV): 50 % of Patients
efficacy in reducing the signs and symptoms of RA ([4]; single IV dose of 1, 5 or 20 mg/kg, over 8 weeks): efficacious
ACR-20 responder rate ([5]; 50 mg SC every 4 weeks): 21 % of Patients
ACR-50 responder rate ([5]; 50 mg SC every 4 weeks): 8 % of Patients
ACR-70 responder rate ([5]; 50 mg SC every 4 weeks): 5 % of Patients
ACR-20 responder rate ([5]; 100 mg SC every 4 weeks): 20 % of Patients
ACR-50 responder rate ([5]; 100 mg SC every 4 weeks): 5 % of Patients
ACR-70 responder rate ([5]; 100 mg SC every 4 weeks): 3 % of Patients
ACR-20 responder rate ([5]; 200 mg SC every 4 weeks): 34 % of Patients
ACR-50 responder rate ([5]; 200 mg SC every 4 weeks): 17* % of Patients
ACR-70 responder rate ([5]; 200 mg SC every 4 weeks): 7 % of Patients
ACR-20 responder rate ([5]; 400 mg SC every 4 weeks): 60* % of Patients
ACR-50 responder rate ([5]; 400 mg SC every 4 weeks): 40* % of Patients
ACR-70 responder rate ([5]; 400 mg SC every 4 weeks): 29* % of Patients
ACR-20 responder rate ([5]; 600 mg SC every 4 weeks): 64* % of Patients
ACR-50 responder rate ([5]; 600 mg SC every 4 weeks): 33* % of Patients
ACR-70 responder rate ([5]; 600 mg SC every 4 weeks): 21* % of Patients
ACR-20 responder rate ([5]; 800 mg SC every 4 weeks): 79* % of Patients
ACR-50 responder rate ([5]; 800 mg SC every 4 weeks): 47* % of Patients
ACR-70 responder rate ([5]; 800 mg SC every 4 weeks): 21* % of Patients
efficacy in treating the signs and symptoms of RA ([5]; doses ≧400 mg SC every 4 weeks): efficacious
mean plasma concentration at 55 days postdose [6]: 2740 ng/mL
CL/F (plasma clearance) ([6]; sc): 0.021 L/h
t½ ([6]; sc): 10.738 days
mean t½ ([6]; sc, 400 mg): 10.7 days
overall plasma exposure (AUC) over the 55-day monitoring period ([6]; sc, 400 mg): approximately 22000 hr*μg/mL
